Results on eight molecules are retold here after patent US20080139484A1, “1(Beta-D-Glycopyranosyl)-3-Substituted Nitrogenous Heterocyclic Compound, Medicinal Composition Containing the Same, and Medicinal Use Thereof” (KISSEI PHARMACEUTICAL CO., LTD., priority 2004, published 2008).

The target of test [1] is T1, human SGLT1 (Homo sapiens, UniProt P13866).
T1 construct: expressed in transfected cells; host or cells: COS-7 cells, transient lipofection (Lipofectamine-2000) of pcDNA3.1(-) vector
T1 sequence (P13866 1-664): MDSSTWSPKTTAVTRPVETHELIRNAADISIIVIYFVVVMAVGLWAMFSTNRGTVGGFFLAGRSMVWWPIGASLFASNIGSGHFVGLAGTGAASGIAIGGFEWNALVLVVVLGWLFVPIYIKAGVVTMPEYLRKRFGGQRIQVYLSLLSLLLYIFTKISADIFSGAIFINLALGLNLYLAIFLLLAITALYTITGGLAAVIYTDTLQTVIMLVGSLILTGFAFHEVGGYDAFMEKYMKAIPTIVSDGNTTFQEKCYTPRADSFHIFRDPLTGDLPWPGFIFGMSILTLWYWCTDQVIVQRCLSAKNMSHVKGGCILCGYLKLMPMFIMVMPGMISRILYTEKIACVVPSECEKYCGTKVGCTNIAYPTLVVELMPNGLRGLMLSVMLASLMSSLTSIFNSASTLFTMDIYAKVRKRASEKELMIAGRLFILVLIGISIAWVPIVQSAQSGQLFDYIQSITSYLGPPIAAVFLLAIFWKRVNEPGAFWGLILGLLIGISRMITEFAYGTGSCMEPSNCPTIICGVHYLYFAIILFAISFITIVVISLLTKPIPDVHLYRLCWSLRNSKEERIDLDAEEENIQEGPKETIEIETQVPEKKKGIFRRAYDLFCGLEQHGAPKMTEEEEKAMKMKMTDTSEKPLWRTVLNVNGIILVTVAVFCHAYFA
Briefly: Inhibition of methyl-α-D-glucopyranoside (α-MG) uptake in COS-7 cells expressing human SGLT1. It is filed as cell-based. The conditions noted are these: COS-7 cells expressing human SGLT1, 1 mM α-MG, 1 hour incubation at 37° C. On the procedure: (§1) Assay for Inhibitory Effects on Human SGLT Activity
The cDNA library was prepared for PCR amplification by reverse transcription from total RNA deprived from human small intestine (Ori gene) using oligo-dT as a primer. Using this cDNA library as a template, the DNA fragment coding 1 to 2005 bp of human SGLT1 (ACCESSION: M24847), which was reported by Hediger et al., was amplified by PCR method and inserted into the multi-cloning site of pcDNA3.1(−) (Invitrogen). The DNA sequence inserted was perfectly matched to the previously reported sequence.
(§2) The vector expressing human SGLT1 or SGLT2 was transfected into COS-7 cells by lipofection method (Lipofectamine-2000: Invitrogen). First, COS-7 cells were plated 5×10^4 cells/100 μL/well on 96-wells plate and incubated at 37° C. for 2 hours. In addition, per 50 μL medium, 0.3 μg of human SGLT1 or SGLT2 expression vector was mixed with 0.5 μL of Lipofectamine-2000 and the complex solution was prepared. Fifty μL/well of this complex solution was added to COS-7 cells, previously described, and the plate was mixed gently and was used for uptake assay after 2 days culture.
A mixture of non-labeled (Sigma) and ^14C-labeled α-MG (Amersham Pharmacia Biotech) was added to the uptake buffer (pH 7.4; containing 140 mM sodium chloride, 2 mM potassium chloride, 1 mM calcium chloride, 1 mM magnesium chloride, 10 mM 2-[4-(2-hydroxyethyl)-1-piperazinyl]ethane sulfonic acid and 5 mM tris(hydroxymethyl)aminomethane) at the final concentration of 1 mM. A test compound was dissolved in dimethyl sulfoxide, and then appropriately diluted with distilled water. The test compound solution was added to the uptake buffer containing 1 mM α-MG, and designated as a measurement buffer. For the control group, the measurement buffer without any test compound was prepared. For measuring the basal uptake, a basal uptake measurement buffer, which contains 140 mM chorine chloride instead of sodium chloride, was prepared. After removing the culture medium of cells expressing human SGLT1 or human SGLT2, 180 μL of the pre-treatment buffer (the basal uptake buffer without α-MG) was added to each well and incubated at 37° C. for 10 minutes. After repeating the same treatment, the pre-treatment buffer was removed, and then 75 μL per well of the measurement buffer or the basal uptake buffer was added and the cells were incubated at 37° C. […] Radioactivity was measured by means of micro-scintillation counter TopCount (Packard). One hundred % was set to the difference between the uptake in the control group and the basal uptake, and the uptake of methyl α-D-glucopyranoside at each drug concentration was calculated. […]

Test [2] concerns the target T2, human SGLT2 (Homo sapiens, UniProt P31639).
T2 construct: expressed in transfected cells; host or cells: COS-7 cells, transient lipofection (Lipofectamine-2000) of pcDNA3.1(-) vector
T2 sequence (P31639 1-672): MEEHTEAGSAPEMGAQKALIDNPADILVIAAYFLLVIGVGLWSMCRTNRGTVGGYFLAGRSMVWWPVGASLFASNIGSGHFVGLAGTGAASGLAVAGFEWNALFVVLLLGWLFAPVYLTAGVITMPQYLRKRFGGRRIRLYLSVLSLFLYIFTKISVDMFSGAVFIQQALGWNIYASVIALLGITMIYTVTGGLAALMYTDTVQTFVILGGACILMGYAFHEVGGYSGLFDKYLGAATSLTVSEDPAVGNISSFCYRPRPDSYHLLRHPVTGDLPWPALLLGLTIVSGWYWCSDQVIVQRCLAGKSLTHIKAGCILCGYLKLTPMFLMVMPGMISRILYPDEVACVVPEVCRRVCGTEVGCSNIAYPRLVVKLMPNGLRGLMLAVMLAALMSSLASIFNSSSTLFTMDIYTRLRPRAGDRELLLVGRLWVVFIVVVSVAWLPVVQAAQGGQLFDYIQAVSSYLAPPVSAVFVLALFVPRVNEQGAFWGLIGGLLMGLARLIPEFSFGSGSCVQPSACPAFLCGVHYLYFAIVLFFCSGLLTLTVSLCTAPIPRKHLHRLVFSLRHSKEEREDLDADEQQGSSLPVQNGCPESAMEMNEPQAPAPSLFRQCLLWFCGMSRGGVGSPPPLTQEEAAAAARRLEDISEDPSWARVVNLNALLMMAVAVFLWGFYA
In words: Inhibition of methyl-α-D-glucopyranoside (α-MG) uptake in COS-7 cells expressing human SGLT2. It is filed as cell-based. The conditions noted are these: COS-7 cells expressing human SGLT2, 1 mM α-MG, 1 hour incubation at 37° C. On the procedure: as §1
The cDNA library was prepared for PCR amplification by reverse transcription from total RNA deprived from human kidney (Ori gene) using oligo-dT as a primer. Using this cDNA library as a template, the DNA fragment coding 2 to 2039 bp of human SGLT2 (ACCESSION: M95549, M95299), which was reported by R. G. Wells et al., was amplified by PCR method and inserted into the multi-cloning site of pcDNA3.1(−) (Invitrogen). The DNA sequence inserted was perfectly matched to the previously reported sequence.
as §2
A mixture of non-labeled (Sigma) and ^14C-labeled α-MG (Amersham Pharmacia Biotech) was added to the uptake buffer (pH 7.4; containing 140 mM sodium chloride, 2 mM potassium chloride, 1 mM calcium chloride, 1 mM magnesium chloride, 10 mM 2-[4-(2-hydroxyethyl)-1-piperazinyl]ethane sulfonic acid and 5 mM tris(hydroxymethyl)aminomethane) at the final concentration of 1 mM. A test compound was dissolved in dimethyl sulfoxide, and then appropriately diluted with distilled water. The test compound solution was added to the uptake buffer containing 1 mM α-MG, and designated as a measurement buffer. For the control group, the measurement buffer without any test compound was prepared. For measuring the basal uptake, a basal uptake measurement buffer, which contains 140 mM chorine chloride instead of sodium chloride, was prepared. After removing the culture medium of cells expressing human SGLT1 or human SGLT2, 180 μL of the pre-treatment buffer (the basal uptake buffer without α-MG) was added to each well and incubated at 37° C. for 10 minutes. After repeating the same treatment, the pre-treatment buffer was removed, and then 75 μL per well of the measurement buffer or the basal uptake buffer was added and the cells were incubated at 37° C. After 1 hour incubation, the measurement buffer was removed and the cells were washed twice with 180 μL per well of the washing buffer (the basal uptake buffer containing 10 mM non-labeled α-MG). The cells were solubilized by 75 μL per well of 0.2 mol/L sodium hydroxide, and then the cell lysates were transferred into PicoPlates (Packard). One hundred fifty μL of Microscint-40 (Packard) was added to the wells and mixed. Radioactivity was measured by means of micro-scintillation counter TopCount (Packard). One hundred % was set to the difference between the uptake in the control group and the basal uptake, and the uptake of methyl α-D-glucopyranoside at each drug concentration was calculated. The drug concentration, at which 50% uptake of methyl α-D-glucopyranoside was inhibited (IC50 value), was calculated using logit plot. The blanks in the Table are untested.

A short description of test [3]: Test Example 3: effect on urinary glucose excretion. The test is classed as in vivo. The conditions noted are these: overnight fasted male SD rats, 9 weeks of age, 1 mg/kg intravenously (2 mL/kg), urine collected for 24 hours. On the procedure:
As experimental animals, overnight fasted SD rats (CHARLES RIVER LABORATORIES JAPAN. Inc., Crj:CD(SD)IGS, male, 9 weeks of age, 300-330 g) were used.
Example 346 compound of 2.90 mg was dissolved by adding 29.0 μL of dimethyl sulfoxide and 2320 μL of polyethylene glycol 400. And then, the solution was mixed with 3450 μL of saline. This 0.5 mg/mL solution was used for administration.
Rats were fasted for overnight. The body weights of rats were measured and urinary glucose excretions were calculated as with the Test Example 2 except for intravenously injection to the tail veins of rats at the dose of 2 mL/kg (1 mg/kg as test compound).

Test [4] is described as follows: Test Example 2: effect on urinary glucose excretion. The test is classed as in vivo. The conditions noted are these: overnight fasted male SD rats, 7 weeks of age, 1 mg/kg intravenously (3 mL/kg), urine collected for 24 hours. On the procedure:
As experimental animals, overnight fasted SD rats (CHARLES RIVER LABORATORIES JAPAN. Inc., Crj:CD(SD(IGS), male, 7 weeks of age, 200-230 g) were used.
Example 10 compound of 2.12 mg was dissolved by adding 636 μL of ethanol and 2544 μL of polyethylene glycol 400. And then the solution was mixed with 3180 μL of saline and sonicated. Example 12 compound of 2.18 mg was dissolved by adding 654 μL of ethanol and 2616 μL of polyethylene glycol 400. And then the solution was mixed with 3270 μL of saline and sonicated. These test compound solutions of 0.33 mg/mL were used for administration.
The body weights of rats were measured and the solution of the test compound was intravenously injected to the tail vein of rats at the dose of 3 mL/kg (1 mg/kg as test compound). Collection of urine was performed for 24 hours after the administration. […]
Frozen samples were thawed and mixed well. According to need, a part of samples was diluted with distilled water and the glucose concentration of these samples was measured with a kit for laboratory test: Glucose CII-Test WAKO (Wako Pure Chemical Industries, Ltd.).
The amounts of urinary glucose excretion per 200 g of body weight were calculated from glucose concentration of urinary samples, dilution factor, urinary volume and body weight using the following equation. […]

Test [5] in a line: Test Example 4: inhibitory effects on blood glucose level increase, liquid meal tolerance test in diabetic rats. It is filed as in vivo. The conditions noted are these: streptozotocin diabetic rats, 2 mg/kg orally, liquid meal load, mean ± S.E. On the procedure:
Rats, aged 8 weeks old, were injected streptozotocin (45 mg/kg) intravenously from tail vain. After 1 week, rats were fasted overnight and then glucose tolerance test (2 g/kg) was performed.
After overnight fasted, the diabetic rats were or ally administered a test compound (2 mg/kg), which was dissolved in distilled water, in the drug-treating group, or distilled water alone in a control group. Immediately after the compound administration, 3 mL/body of liquid meal (No. 038, Control diet, assorted with dextrin and maltose; Oriental Yeast Co., Ltd., prepared for 323 g/L) was loaded or ally. The blood was collected from tail artery immediately before and after administration with the time course, and treated with heparin immediately. The blood was centrifuged, and the plasma was collected and quantified the plasma glucose concentration by glucose oxidase method. The values in the Table are presented as the mean ±S.E.

SMILES strings stand for the structures.

As for `COc1ccc(Cc2cn([C@@H]3O[C@H](CO)[C@@H](O)[C@H](O)[C@H]3O)c3cccc(C)c23)cc1` [Example 8], the values for the IC50 in test [1] and in test [2] were 10 nM and 0.6 nM, respectively.

Molecule `COc1ccc(Cc2cn([C@@H]3O[C@H](CO)[C@@H](O)[C@H](O)[C@H]3O)c3ccccc23)c(F)c1` [Example 15] showed an IC50 in test [2] of 11 nM.

In test [1], `Cc1cccc2c1c(Cc1ccc(OCCCNCCC(N)=O)cc1)cn2[C@@H]1O[C@H](CO)[C@@H](O)[C@H](O)[C@H]1O` [Example 318, 3-[(4-{3-[2-(Carbamoyl)ethylamino]propoxy}phenyl)methyl]-1-(β-D-glucopyranosyl)-4-methyl-1H-indole] showed an IC50 of 122 nM.

As for `COc1ccc(Sc2cn([C@@H]3O[C@H](CO)[C@@H](O)[C@H](O)[C@H]3O)c3cc(C)ccc23)cc1` [Example 346, 1-(β-D-Glucopyranosyl)-3-{(4-methoxyphenyl)sulfany}-6-methyl-1H-indole], the “Amount of urinary excretion of glucose in 24 hours” value (“Amount” below) in test [3] came out at 33.12 mg/200 g body weight. The molecule further showed an IC50 in test [2] of 0.4 nM.

For the molecule `Cc1cccc2c1c(Cc1ccc(CCCC(=O)NC(C)(C)C(=O)N3CCNCC3)cc1)cn2[C@@H]1O[C@H](CO)[C@@H](O)[C@H](O)[C@H]1O` [Example 329, 1-(β-D-Glucopyranosyl)-3-(4-[3-{1-(piperazin-1-yl-carbonyl)-1-(methyl)ethylcarbamoyl}propyl]phenyl)methyl-4-methyl-1H-indole], in test [1], the IC50 worked out at 41 nM.

With `COc1ccc(Cc2cn([C@@H]3O[C@H](CO)[C@@H](O)[C@H](O)[C@H]3O)c3cc(C)ccc23)cc1` [Example 12, 1-(β-D-glucopyranosyl)-3-(4-methoxybenzyl)-6-methyl-1H-indole], the IC50 worked out at 3200 nM in test [1] and 0.9 nM in test [2]. In test [4], the “Amount” value came to 111.8 mg/200 g body weight.

Regarding `CCOC(=O)[C@H](CO)NC(=O)CCCc1ccc(Cc2cn([C@@H]3O[C@H](CO)[C@@H](O)[C@H](O)[C@H]3O)c3cccc(C)c23)cc1` [Example 320], the “Plasma glucose concentration 0.5 h” value in test [5] (0.5 hour after administration) is recorded as 230 ± 14 mg/dL. Further, the “Plasma glucose concentration 1 h” value in test [5] (1 hour after administration) was 312 ± 15 mg/dL. Moreover, the “Plasma glucose concentration 0 h” value in test [5] (pretreatment (0 h)) turned out to be 133 ± 10 mg/dL.

As to `CCc1ccc(Cc2cn([C@@H]3O[C@H](CO)[C@@H](O)[C@H](O)[C@H]3O)c3ccccc23)cc1` [Example 10], in test [4], the “Amount” value was 11.2 mg/200 g body weight. Further, in test [2], the IC50 is 0.5 nM.

As a reminder, the IC50 is the concentration that inhibits the measured activity by half.
